Values quoted from earlier work, collected in US9352019B2, “Using heat shock proteins to improve the therapeutic benefit of a non-vaccine treatment modality” (University of Connecticut Health Center, priority 2002, dated 2016).
Counter-ions that a name gives are not always drawn.

Test system: CML
Details: Gleevec alone; Druker et al., 2002

Question: For `Cc1ccc(NC(=O)c2ccc(CN3CCN(C)CC3)cc2)cc1Nc1nccc(-c2cccnc2)n1` [Gleevec™, imatinib mesylate], which “patients achieving responses using these same criteria” value is on record?
Answer: less than 10% of patients
